Experimental data published in patent US20080090734A1, “DRUG SCREENING AND TARGET IDENTIFICATION USING SPR IMAGING OF TARGET PROTEIN ARRAYS” (The Trustees of California State University, priority 2006, published 2008).

What was measured:
Assay in all cases: Antibiotic susceptibility profile
Assay type in all cases: cell-based, Acinetobacter baumannii
Set-up in all cases: key: Resistance; Intermediate; Susceptible
[1] = system: A. baumannii clinical isolate LAC 01
How it was run: (§1)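 Clinical isolates from nosocomial infections in New York City and Los Angeles, tested alongside reference strains against only antibiotics having A. baumannii breakpoints; each scored R (resistant), I (intermediate) or S (susceptible).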

[2] = system: A. baumannii clinical isolate LAC 02
How it was run: as §1

[3] = system: A. baumannii clinical isolate LAC 03
How it was run: as §1

[4] = system: A. baumannii clinical isolate LAC 04
How it was run: as §1

[5] = system: A. baumannii clinical isolate LAC 05
How it was run: as §1

[6] = system: A. baumannii clinical isolate LAC 06
How it was run: as §1

[7] = system: A. baumannii clinical isolate LAC 07
How it was run: as §1

[8] = system: A. baumannii clinical isolate LAC 08
How it was run: as §1

[9] = system: A. baumannii clinical isolate LAC 09
How it was run: as §1

[10] = system: A. baumannii clinical isolate LAC 10
How it was run: as §1

[11] = system: A. baumannii clinical isolate LAC 11
How it was run: as §1

[12] = system: A. baumannii clinical isolate LAC 12
How it was run: as §1

[13] = system: A. baumannii clinical isolate LAC 13
How it was run: as §1

[14] = system: A. baumannii clinical isolate LAC 14
How it was run: as §1

[15] = system: A. baumannii clinical isolate LAC 15
How it was run: as §1

[16] = system: A. baumannii clinical isolate LAC 16
How it was run: as §1

[17] = system: A. baumannii clinical isolate LAC 17
How it was run: as §1

[18] = system: A. baumannii clinical isolate LAC 18
How it was run: as §1

[19] = system: A. baumannii clinical isolate LAC 19
How it was run: as §1

[20] = system: A. baumannii clinical isolate LAC 20
How it was run: as §1

[21] = system: A. baumannii clinical isolate NY A
How it was run: as §1

[22] = system: A. baumannii clinical isolate NY B
How it was run: as §1

[23] = system: A. baumannii clinical isolate NY C
How it was run: as §1

[24] = system: A. baumannii clinical isolate NY D
How it was run: as §1

[25] = system: A. baumannii clinical isolate NY E
How it was run: as §1

[26] = system: A. baumannii clinical isolate NY F
How it was run: as §1

[27] = system: A. baumannii clinical isolate NY G
How it was run: as §1

[28] = system: A. baumannii clinical isolate NY H
How it was run: as §1

[29] = system: A. baumannii reference strain 15839; conditions: strain 15839 (ATCC)
How it was run: (§2)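 Clinical isolates came from nosocomial infections in New York City and Los Angeles and were tested only against antibiotics with established A. baumannii breakpoints. Each result was categorised as resistant (R), intermediate (I) or susceptible (S).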

[30] = system: A. baumannii reference strain 17978; conditions: strain 17978 (ATCC)
How it was run: as §2

[31] = system: A. baumannii reference strain 19606; conditions: strain 19606 (ATCC)
How it was run: as §2

[32] = system: A. baumannii reference strain AYE
How it was run: as §1

[33] = system: A. baumannii reference strain SDF
How it was run: as §2

| Compound | Antibiotic susceptibility [1] | Antibiotic susceptibility [2] | Antibiotic susceptibility [3] | Antibiotic susceptibility [4] | Antibiotic susceptibility [5] | Antibiotic susceptibility [6] | Antibiotic susceptibility [7] | Antibiotic susceptibility [8] | Antibiotic susceptibility [9] | Antibiotic susceptibility [10] | Antibiotic susceptibility [11] | Antibiotic susceptibility [12] | Antibiotic susceptibility [13] | Antibiotic susceptibility [14] | Antibiotic susceptibility [15] | Antibiotic susceptibility [16] | Antibiotic susceptibility [17] | Antibiotic susceptibility [18] | Antibiotic susceptibility [19] | Antibiotic susceptibility [20] | other results |
| --- | --- | --- | --- | --- | --- | --- | --- | --- | --- | --- | --- | --- | --- | --- | --- | --- | --- | --- | --- | --- | --- |
| C[C@@H](O)[C@H]1C(=O)N2C(C(=O)O)=C(SCCN=CN)C[C@H]12 [IPM, Imipenem] | S | I | S | S | S | S | I | S | R | R | S | S | S | S | I | I | I | I | I | I | Antibiotic susceptibility [21]: R; Antibiotic susceptibility [22]: R; Antibiotic susceptibility [23]: R; Antibiotic susceptibility [24]: R; Antibiotic susceptibility [25]: R; Antibiotic susceptibility [26]: R; Antibiotic susceptibility [27]: R; Antibiotic susceptibility [28]: R; Antibiotic susceptibility [29]: S; Antibiotic susceptibility [30]: S; Antibiotic susceptibility [31]: S; Antibiotic susceptibility [32]: R; Antibiotic susceptibility [33]: S |
| C[C@@H](O)[C@H]1C(=O)N2C(C(=O)O)=C(S[C@@H]3CN[C@H](C(=O)N(C)C)C3)[C@H](C)[C@H]12 [MEM, Meropenem] | R | R | I | S | S | S | R | S | R | R | R | S | S | S | R | S | S | S | R | I | Antibiotic susceptibility [21]: R; Antibiotic susceptibility [22]: R; Antibiotic susceptibility [23]: R; Antibiotic susceptibility [24]: R; Antibiotic susceptibility [25]: R; Antibiotic susceptibility [26]: R; Antibiotic susceptibility [27]: R; Antibiotic susceptibility [28]: R; Antibiotic susceptibility [29]: S; Antibiotic susceptibility [30]: S; Antibiotic susceptibility [31]: S; Antibiotic susceptibility [32]: S; Antibiotic susceptibility [33]: S |
